Laboratory results as given in patent US20090016990A1, “Antimicrobial Compositions” (priority 2007, published 2009).

Columns and labels:
[1] = system: Pseudomonas aeruginosa ATCC 27853; assay: MBEC assay, biofilm elimination, MBEC bioFILM PA panel; format: cell-based; parameters: MBEC-Biofilm Elimination, Without compound 2 / MBEC-Biofilm Elimination, With 0.01% compound 2 in 5% EtOH/PBS / MBEC-Biofilm Elimination, Without compound 7 / MBEC-Biofilm Elimination, With 0.01% compound 7 in 5% EtOH/PBS / MBEC-Biofilm Elimination, Without compound 1 / MBEC-Biofilm Elimination, With 0.01% compound 1 in 5% EtOH/PBS / MBEC-Biofilm Elimination, without salt of compound 2 / MBEC-Biofilm Elimination, with 0.1% salt of compound 2: unit not given here; settings: for MBEC-Biofilm Elimination, without salt of compound 2 / MBEC-Biofilm Elimination, with 0.1% salt of compound 2: Table 9; for MBEC-Biofilm Elimination, without salt of compound 2 / MBEC-Biofilm Elimination, without salt of compound 6: antibiotic or antibiotic combination alone; for MBEC-Biofilm Elimination, without salt of compound 2 / MBEC-Biofilm Elimination, with 0.1% salt of compound 2 / MBEC-Biofilm Elimination, without salt of compound 6 / MBEC-Biofilm Elimination, with 0.1% salt of compound 6: value per component; for MBEC-Biofilm Elimination, with 0.1% salt of compound 2: antibiotic or combination plus 0.1% salt of compound 2; for MBEC-Biofilm Elimination, without salt of compound 6 / MBEC-Biofilm Elimination, with 0.1% salt of compound 6: Table 10; for MBEC-Biofilm Elimination, with 0.1% salt of compound 6: antibiotic or combination plus 0.1% salt of compound 6; for MBEC-Biofilm Elimination, Without compound 1 / MBEC-Biofilm Elimination, Without compound 2 / MBEC-Biofilm Elimination, Without compound 3 / MBEC-Biofilm Elimination, Without compound 6 / MBEC-Biofilm Elimination, Without compound 7 / MBEC-Biofilm Elimination, Without compound 9: antibiotic alone
[2] = system: Pseudomonas aeruginosa ATCC 27853; assay: MBEC assay, biofilm inhibition (prevention of biofilm formation), MBEC bioFILM PA panel; format: cell-based; parameters: MBEC-Biofilm Inhibition, Without compound 9 / MBEC-Biofilm Inhibition, Without compound 6 / MBEC-Biofilm Inhibition, Without compound 2 / MBEC-Biofilm Inhibition, Without compound 7 / MBEC-Biofilm Inhibition, With 0.01% compound 7 in 5% EtOH/PBS / MBEC-Biofilm Inhibition, without salt of compound 2 / MBEC-Biofilm Inhibition, with 0.1% salt of compound 2 / MBEC-Biofilm Inhibition, without salt of compound 6: unit not given here; settings: for MBEC-Biofilm Inhibition, without salt of compound 2 / MBEC-Biofilm Inhibition, with 0.1% salt of compound 2: Table 9; for MBEC-Biofilm Inhibition, without salt of compound 2 / MBEC-Biofilm Inhibition, without salt of compound 6: antibiotic or antibiotic combination alone; for MBEC-Biofilm Inhibition, without salt of compound 2 / MBEC-Biofilm Inhibition, with 0.1% salt of compound 2 / MBEC-Biofilm Inhibition, without salt of compound 6 / MBEC-Biofilm Inhibition, with 0.1% salt of compound 6: value per component; for MBEC-Biofilm Inhibition, without salt of compound 2: separated by /; for MBEC-Biofilm Inhibition, with 0.1% salt of compound 2: antibiotic or combination plus 0.1% salt of compound 2; for MBEC-Biofilm Inhibition, without salt of compound 6 / MBEC-Biofilm Inhibition, with 0.1% salt of compound 6: Table 10; for MBEC-Biofilm Inhibition, with 0.1% salt of compound 6: antibiotic or combination plus 0.1% salt of compound 6; for MBEC-Biofilm Inhibition, Without compound 1 / MBEC-Biofilm Inhibition, Without compound 2 / MBEC-Biofilm Inhibition, Without compound 3 / MBEC-Biofilm Inhibition, Without compound 6 / MBEC-Biofilm Inhibition, Without compound 7 / MBEC-Biofilm Inhibition, Without compound 9: antibiotic alone
[3] = reduction of antibiotic or combination required to prevent biofilm formation
[4] = with 0.01% compound 1 in 5% EtOH/PBS
[5] = with 0.01% compound 2 in 5% EtOH/PBS
[6] = with 0.1% w/v compound 9 in PBS

| SMILES | MBEC-Biofilm Elimination, without salt of compound 2 [1] | MBEC-Biofilm Elimination, with 0.1% salt of compound 2 [1] | MBEC-Biofilm Elimination, without salt of compound 6 [1] | MBEC-Biofilm Elimination, with 0.1% salt of compound 6 [1] | MBEC-Biofilm Elimination, Without compound 1 [1] | MBEC-Biofilm Elimination, Without compound 2 [1] | MBEC-Biofilm Elimination, Without compound 3 [1] | MBEC-Biofilm Elimination, Without compound 6 [1] | MBEC-Biofilm Elimination, Without compound 7 [1] | MBEC-Biofilm Elimination, Without compound 9 [1] | MBEC-Biofilm Elimination, With 0.01% compound 1 in 5% EtOH/PBS [1] | MBEC-Biofilm Elimination, With 0.01% compound 2 in 5% EtOH/PBS [1] | MBEC-Biofilm Elimination, With 0.01% compound 7 in 5% EtOH/PBS [1] | MBEC-Biofilm Elimination, With 0.05% compound 3 in 5% EtOH/PBS [1] | MBEC-Biofilm Elimination, With 0.05% compound 6 in 5% EtOH/PBS [1] | MBEC-Biofilm Inhibition, without salt of compound 2 [2] | MBEC-Biofilm Inhibition, with 0.1% salt of compound 2 [2] | MBEC-Biofilm Inhibition, without salt of compound 6 [2] | MBEC-Biofilm Inhibition, with 0.1% salt of compound 6 [2] | MBEC-Biofilm Inhibition, Without compound 1 [2] | other results |
| --- | --- | --- | --- | --- | --- | --- | --- | --- | --- | --- | --- | --- | --- | --- | --- | --- | --- | --- | --- | --- | --- |
| O=C(O)c1cn(C2CC2)c2cc(N3CCNCC3)c(F)cc2c1=O [CP, ciprofloxacin] | >0.5 | 0.5 | >0.5 | >0.5 | >0.5 | >0.5 | >0.5 | >0.5 | >0.5 | >0.5 | >0.5 | >0.5 | >0.5 | >0.5 | >0.5 | >0.5 | >0.5 | >0.5 | >0.5 | >0.5 | MBEC-Biofilm Inhibition, Without compound 2 [2]: >0.5; MBEC-Biofilm Inhibition, Without compound 3 [2]: >0.5; MBEC-Biofilm Inhibition, Without compound 6 [2]: >0.5; MBEC-Biofilm Inhibition, Without compound 7 [2]: >0.5; MBEC-Biofilm Inhibition, Without compound 9 [2]: 0.5; MBEC ([2]; antibiotic or combination alone, concentrations in order of the combination): >0.5 µg/mL; MBEC, μg/mL +Compound 1 ([2]; antibiotic plus Compound 1): 0.5 µg/mL; MBEC, μg/mL +Compound 2 ([2]; antibiotic plus Compound 2): >0.5 µg/mL; MBEC, μg/mL +Compound 7 ([2]; antibiotic plus Compound 7): 0.5 µg/mL; (% reduction) +Compound 1 [2, 3]: > 50%; (% reduction) +Compound 7 [2, 3]: > 50%; MBEC-Biofilm Inhibition, With 0.01% compound 1 in 5% EtOH/PBS [2, 4]: 0.5; value in parentheses after MBEC-Biofilm Inhibition with 0.01% compound 1 (% reduction as in Table 2) [2, 4]: ≥ 50; MBEC-Biofilm Inhibition, With 0.01% compound 2 in 5% EtOH/PBS [2, 5]: 0.5; value in parentheses after MBEC-Biofilm Inhibition with 0.01% compound 2 (% reduction as in Table 2) [2, 5]: ≥ 50; MBEC-Biofilm Inhibition, With 0.01% compound 7 in 5% EtOH/PBS [2]: >0.5; MBEC-Biofilm Inhibition, With 0.05% compound 3 in 5% EtOH/PBS [2]: >0.5; MBEC-Biofilm Inhibition, With 0.05% compound 6 in 5% EtOH/PBS [2]: >0.5 |
| CO/N=C(\C(=O)N[C@@H]1C(=O)N2C(C(=O)[O-])=C(C[N+]3(C)CCCC3)CS[C@H]12)c1csc(N)n1 [CPE, cefepime] | >4 | >4 | >4 | >4 | >4 | >4 | >4 | >4 | >4 | >4 | >4 | >4 | >4 | >4 | >4 | >4 | >4 | >4 | >4 | >4 | MBEC-Biofilm Inhibition, Without compound 2 [2]: >4; MBEC-Biofilm Inhibition, Without compound 3 [2]: >4; MBEC-Biofilm Inhibition, Without compound 6 [2]: >4; MBEC-Biofilm Inhibition, Without compound 7 [2]: >4; MBEC-Biofilm Inhibition, Without compound 9 [2]: >4; MBEC-Biofilm Inhibition, With 0.01% compound 1 in 5% EtOH/PBS [2, 4]: >4; MBEC-Biofilm Inhibition, With 0.01% compound 2 in 5% EtOH/PBS [2, 5]: >4; MBEC-Biofilm Inhibition, With 0.01% compound 7 in 5% EtOH/PBS [2]: >4; MBEC-Biofilm Inhibition, With 0.05% compound 3 in 5% EtOH/PBS [2]: >4; MBEC-Biofilm Inhibition, With 0.05% compound 6 in 5% EtOH/PBS [2]: >4 |
| C[C@@H](O)[C@H]1C(=O)N2C(C(=O)O)=C(S[C@@H]3CN[C@H](C(=O)N(C)C)C3)[C@H](C)[C@H]12 [MER, meropenem] | >1 | >1 | >1 | >1 | >1 | >1 | >1 | >1 | >1 | >1 | >1 | >1 | >1 | 1 | >1 | >2 | >2 | >2 | >2 | >2 | MBEC-Biofilm Elimination, With 0.1% w/v compound 9 in PBS [1, 6]: >1; MBEC-Biofilm Inhibition, Without compound 2 [2]: >2; MBEC-Biofilm Inhibition, Without compound 3 [2]: >2; MBEC-Biofilm Inhibition, Without compound 6 [2]: >2; MBEC-Biofilm Inhibition, Without compound 7 [2]: >2; MBEC-Biofilm Inhibition, Without compound 9 [2]: >2; MBEC-Biofilm Inhibition, With 0.01% compound 1 in 5% EtOH/PBS [2, 4]: >2; MBEC-Biofilm Inhibition, With 0.01% compound 2 in 5% EtOH/PBS [2, 5]: >2; MBEC-Biofilm Inhibition, With 0.01% compound 7 in 5% EtOH/PBS [2]: >2; MBEC-Biofilm Inhibition, With 0.05% compound 3 in 5% EtOH/PBS [2]: >2; MBEC-Biofilm Inhibition, With 0.05% compound 6 in 5% EtOH/PBS [2]: >2; MBEC-Biofilm Inhibition, With 0.1% w/v compound 9 in PBS [2, 6]: >2 |
